ChEMBL document CHEMBL1201862, “PubChem BioAssay data set” (2004)
Calls of active or inactive are those of the source.

Assays:
[1] = biological target: T1, Microphthalmia-associated transcription factor (Homo sapiens, UniProt O75030); assay: reducers of TRPM1 reporter luminescence, concentration series – cell-based, SK-MEL-5, cherry-picked, set 3, MITF inhibitor project, dose response (AID 493073); format: functional;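 also: SK-MEL-5 melanoma cells with luciferase driven by the MITF target TRPM1 promoter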
T1 sequence (O75030 whole entry): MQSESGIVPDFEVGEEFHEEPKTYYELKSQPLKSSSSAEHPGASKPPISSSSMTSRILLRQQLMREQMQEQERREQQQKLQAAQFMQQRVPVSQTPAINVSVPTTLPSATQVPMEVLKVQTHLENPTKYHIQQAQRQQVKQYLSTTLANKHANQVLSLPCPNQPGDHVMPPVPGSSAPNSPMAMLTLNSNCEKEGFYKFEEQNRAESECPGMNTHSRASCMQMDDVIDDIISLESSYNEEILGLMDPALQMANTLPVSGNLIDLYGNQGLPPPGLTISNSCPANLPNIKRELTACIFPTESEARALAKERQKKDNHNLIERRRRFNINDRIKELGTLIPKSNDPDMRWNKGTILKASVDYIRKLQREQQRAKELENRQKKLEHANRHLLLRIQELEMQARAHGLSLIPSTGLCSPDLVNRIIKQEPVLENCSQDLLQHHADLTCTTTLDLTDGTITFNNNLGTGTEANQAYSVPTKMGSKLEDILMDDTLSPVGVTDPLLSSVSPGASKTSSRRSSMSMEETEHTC

[2] = blockers of bursicon-stimulated LGR2 cAMP reporter – cell-based, HEK293, CRE-luciferase reporter, cherry pick, set 2, dose response (AID 743343); format: functional;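 also: transfected cells were stimulated with diluted bursicon conditioned medium after compound addition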
[3] = viability loss in HEK293 cells – cell-based, plate reader, cherry-picked samples, cytotoxicity control, dose response (AID 743446); format: functional
[4] = blockade of melanocortin 4 receptor signaling – cell-based, plate reader, cherry pick, counter-screen for LGR2 antagonist project, dose response (AID 743444); format: functional;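 also: transfected HEK 293 cells stimulated with alpha-MSH peptide; potency of inhibitors of the alpha-MSH evoked signal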
[5] = A549 cell cytotoxicity, dose response, cytotoxicity control, plate reader, cherry-pick, antagonist series (AID 743412); format: functional, cell-based
[6] = toxicity toward HepG2 liver cells – cell-based, plate reader, cherry-pick, antagonist series, cytotoxicity control, dose response (AID 743416); format: functional
[7] = biological target: Paired box protein Pax-8 (Homo sapiens, UniProt Q06710); assay: PAX8 transcriptional activity inhibition in RMG-I – RMG-I cells, luciferase, cherry-pick, dose response (AID 687027); format: functional, cell-based;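 also: luciferase reporter driven by Pax8 target thyroperoxidase promoter measured by SteadyGlo luminescence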
[8] = HGIII-sPLA2 enzyme inhibition potency – biochemical, QFRET, IC50, dose response (AID 743457);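 also: green fluorescence rise as the enzyme cleaves BODIPY PC-A2 in liposomes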
[9] = blockers of HIV-1 ZM109 envelope-driven cell-cell fusion – HeLa effector, CEM target cells, luciferase, cherry-pick, dose response (AID 652058); format: functional, cell-based;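 also: luciferase signal from HIV-1 Env mediated cell-cell fusion of effector and target cells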
[10] = blockers of HIV-1 envelope-mediated cell-cell fusion – cherry-pick, dose response (AID 652057); format: functional, cell-based
[11] = off-target signal loss in HeLa-CEM21 co-culture – HeLa F-luc CTL cells, cherry-picked, counter-screen for HIV-1 Env fusion inhibitor project, dose response (AID 652040); format: functional, cell-based;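 also: potency for signal decrease marking cytotoxic or nonspecific inhibition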
[12] = HIV-1 AD8 envelope cell-cell fusion blockers – cherry-pick, dose response (AID 652062); format: functional, cell-based;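 also: luciferase signal from cell-cell fusion driven by HIV-1 clade B AD8 Env; potency is for inhibitors of fusion seen as a drop in luminescence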
[13] = non-specific 3'UTR reporter inhibition in Clone20-Shn3RL – cell-based, Renilla luciferase, cherry-picked, counter-screen for Shn3 inhibitor project, dose response (AID 624133); format: functional
[14] = reduction of Shn3 3'UTR-driven luciferase in osteoblasts – cell-based, Clone20 osteoblasts, firefly luciferase, cherry-picked, dose response (AID 624132); format: functional;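 also: firefly luciferase luminescence from reporter carrying the Shn3 3'UTR in osteoblasts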
[15] = loss of viability in HepG2 cells – cell-based, CellTiter-Glo, cherry-picked, cytotoxicity control for Shn3 inhibitor project, dose response (AID 624134); format: functional
[16] = biological target: Nonstructural protein 1 (Influenza A virus, UniProt Q194T2); format: functional, Influenza A virus (A/California/07/2009(H1N1))
[17] = biological target: T2, Histone-lysine N-methyltransferase NSD2 (Homo sapiens, UniProt O96028); format: biochemical
T2 sequence (O96028 whole entry): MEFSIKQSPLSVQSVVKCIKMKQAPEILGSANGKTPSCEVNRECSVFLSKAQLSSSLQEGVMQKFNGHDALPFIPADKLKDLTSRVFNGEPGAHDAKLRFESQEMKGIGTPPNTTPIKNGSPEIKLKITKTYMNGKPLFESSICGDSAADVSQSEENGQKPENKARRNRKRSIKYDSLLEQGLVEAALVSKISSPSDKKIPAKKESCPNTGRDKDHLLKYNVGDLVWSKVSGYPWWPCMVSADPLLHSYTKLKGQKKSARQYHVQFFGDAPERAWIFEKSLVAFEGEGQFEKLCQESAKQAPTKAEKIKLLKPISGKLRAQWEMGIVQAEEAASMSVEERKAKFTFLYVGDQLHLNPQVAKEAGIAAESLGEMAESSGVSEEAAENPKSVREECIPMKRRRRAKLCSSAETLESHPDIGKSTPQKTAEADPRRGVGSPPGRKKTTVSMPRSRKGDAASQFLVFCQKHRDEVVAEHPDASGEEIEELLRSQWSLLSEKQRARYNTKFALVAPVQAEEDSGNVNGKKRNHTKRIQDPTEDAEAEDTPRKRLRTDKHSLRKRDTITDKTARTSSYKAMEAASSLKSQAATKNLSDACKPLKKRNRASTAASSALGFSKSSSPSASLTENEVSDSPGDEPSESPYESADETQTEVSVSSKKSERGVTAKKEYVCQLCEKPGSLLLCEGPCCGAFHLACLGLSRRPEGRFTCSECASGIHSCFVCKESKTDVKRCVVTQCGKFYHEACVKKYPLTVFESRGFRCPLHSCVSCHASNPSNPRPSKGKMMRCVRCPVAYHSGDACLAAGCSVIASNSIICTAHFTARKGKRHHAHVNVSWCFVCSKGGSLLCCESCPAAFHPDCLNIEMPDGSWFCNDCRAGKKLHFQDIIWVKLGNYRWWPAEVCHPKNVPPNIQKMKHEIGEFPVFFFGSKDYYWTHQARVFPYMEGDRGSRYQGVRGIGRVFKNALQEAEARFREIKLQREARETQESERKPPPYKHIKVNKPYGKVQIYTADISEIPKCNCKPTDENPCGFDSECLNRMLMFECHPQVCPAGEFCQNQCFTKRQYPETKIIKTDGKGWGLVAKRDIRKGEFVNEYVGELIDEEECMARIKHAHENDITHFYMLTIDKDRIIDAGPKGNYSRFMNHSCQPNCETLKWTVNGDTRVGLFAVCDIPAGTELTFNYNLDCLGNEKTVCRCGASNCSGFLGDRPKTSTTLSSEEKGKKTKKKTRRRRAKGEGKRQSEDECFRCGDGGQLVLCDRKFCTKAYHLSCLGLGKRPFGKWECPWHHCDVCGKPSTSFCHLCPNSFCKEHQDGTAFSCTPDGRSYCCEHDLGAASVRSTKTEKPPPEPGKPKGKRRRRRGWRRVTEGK

[18] = biological target: Mu-type opioid receptor (Homo sapiens, UniProt P35372); format: functional, cell-based;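 also: U2OS cells with beta-arrestin recruitment to OPRM1 by beta-gal complementation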
[19] = biological target: 5-hydroxytryptamine receptor 2A (Mus musculus, UniProt P35363); format: functional, cell-based;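 also: CHO-K1 cells with tagged receptor and beta-arrestin; agonist potency measured as compound-induced activation of the receptor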
[20] = system: Streptococcus; assay: GAS UMAA2166 growth inhibition – luminescence, BacTiterGlo, counter-screen for streptokinase expression inhibitor project, dose response (AID 1915); format: functional, organism-based;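 also: potency for reduction of bacterial viability or growth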
[21] = system: Streptococcus sp. 'group A'; assay: Streptococcus pyogenes SK(-)GAS viability under kanamycin – luminescence, BacTiterGlo, confirmation, counter-screen for streptokinase expression inhibitor project, dose response (AID 1900); format: functional, organism-based
[22] = biological target: T3, Streptokinase A (Streptococcus pyogenes serotype M1, UniProt P10520); assay: viability-normalized secreted streptokinase activity reduction – plasminogen activation absorbance, OD405, dose response (AID 1914); format: functional, Streptococcus pyogenes M1 GAS;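 also: secreted streptokinase activity via plasminogen activation per viability signal from cell pellet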
T3 sequence (P10520 whole entry): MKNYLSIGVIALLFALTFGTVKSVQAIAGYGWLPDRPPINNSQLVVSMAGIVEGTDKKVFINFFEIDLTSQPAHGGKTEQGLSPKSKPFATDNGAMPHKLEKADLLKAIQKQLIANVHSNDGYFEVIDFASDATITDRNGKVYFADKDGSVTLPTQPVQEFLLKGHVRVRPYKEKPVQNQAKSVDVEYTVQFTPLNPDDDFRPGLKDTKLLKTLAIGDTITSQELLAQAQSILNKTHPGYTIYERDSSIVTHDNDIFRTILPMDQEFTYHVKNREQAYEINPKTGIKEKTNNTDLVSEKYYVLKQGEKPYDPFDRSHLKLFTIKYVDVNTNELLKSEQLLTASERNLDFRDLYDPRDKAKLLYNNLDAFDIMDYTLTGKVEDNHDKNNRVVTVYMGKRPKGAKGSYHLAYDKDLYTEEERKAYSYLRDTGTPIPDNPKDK

[23] = biological target: Heat shock protein HSP 90-alpha (Homo sapiens, UniProt P07900); format: functional, organism-based
[24] = Luminescence Cell-Based Dose Retest to Confirm Inhibitors of Cancer Stem Cells. [Related pubchem assays (depositor defined):AID2717, AID2721]; format: functional; conditions: Homo sapiens
[25] = microbe, parasite or virus in culture; format: functional; conditions: Mycobacterium tuberculosis

5-hydroxytryptamine receptor 2A, sequence (P35363 whole entry): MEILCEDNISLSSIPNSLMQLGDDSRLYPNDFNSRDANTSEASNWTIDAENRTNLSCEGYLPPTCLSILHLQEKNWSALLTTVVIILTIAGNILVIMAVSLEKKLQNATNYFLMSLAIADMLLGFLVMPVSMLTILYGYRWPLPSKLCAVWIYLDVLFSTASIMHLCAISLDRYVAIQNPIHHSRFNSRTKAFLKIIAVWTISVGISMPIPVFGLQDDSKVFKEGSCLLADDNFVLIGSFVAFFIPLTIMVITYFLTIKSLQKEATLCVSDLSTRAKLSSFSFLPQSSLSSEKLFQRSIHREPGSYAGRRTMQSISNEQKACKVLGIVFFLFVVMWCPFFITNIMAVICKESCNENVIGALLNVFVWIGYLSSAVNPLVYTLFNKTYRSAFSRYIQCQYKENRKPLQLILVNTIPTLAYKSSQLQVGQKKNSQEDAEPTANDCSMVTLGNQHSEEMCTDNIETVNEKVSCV
Mu-type opioid receptor, sequence (P35372 whole entry): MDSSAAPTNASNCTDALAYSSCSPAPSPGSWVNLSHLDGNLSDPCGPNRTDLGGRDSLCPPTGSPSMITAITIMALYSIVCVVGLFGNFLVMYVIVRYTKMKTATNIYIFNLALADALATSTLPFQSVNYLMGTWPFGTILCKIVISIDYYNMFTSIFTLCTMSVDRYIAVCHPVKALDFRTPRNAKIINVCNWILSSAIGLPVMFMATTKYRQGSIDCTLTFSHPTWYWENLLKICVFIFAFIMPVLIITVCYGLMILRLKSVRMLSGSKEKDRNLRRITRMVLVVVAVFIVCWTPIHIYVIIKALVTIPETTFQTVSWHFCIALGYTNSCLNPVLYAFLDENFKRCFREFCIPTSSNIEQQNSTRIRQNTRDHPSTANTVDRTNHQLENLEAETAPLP
Paired box protein Pax-8, sequence (Q06710 whole entry): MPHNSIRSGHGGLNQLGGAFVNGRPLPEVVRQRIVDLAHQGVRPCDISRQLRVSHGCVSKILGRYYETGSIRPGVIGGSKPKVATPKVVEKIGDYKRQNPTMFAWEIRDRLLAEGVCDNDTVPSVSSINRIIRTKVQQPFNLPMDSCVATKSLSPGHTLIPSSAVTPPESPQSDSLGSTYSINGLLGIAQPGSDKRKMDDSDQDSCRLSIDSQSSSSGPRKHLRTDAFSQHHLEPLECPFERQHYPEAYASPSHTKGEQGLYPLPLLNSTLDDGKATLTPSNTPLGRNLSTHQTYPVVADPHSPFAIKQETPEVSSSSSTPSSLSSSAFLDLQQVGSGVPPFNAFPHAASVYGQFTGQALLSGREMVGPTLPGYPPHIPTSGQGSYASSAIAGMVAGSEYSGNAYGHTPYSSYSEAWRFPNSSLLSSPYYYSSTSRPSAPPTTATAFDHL
Nonstructural protein 1, sequence (Q194T2 whole entry): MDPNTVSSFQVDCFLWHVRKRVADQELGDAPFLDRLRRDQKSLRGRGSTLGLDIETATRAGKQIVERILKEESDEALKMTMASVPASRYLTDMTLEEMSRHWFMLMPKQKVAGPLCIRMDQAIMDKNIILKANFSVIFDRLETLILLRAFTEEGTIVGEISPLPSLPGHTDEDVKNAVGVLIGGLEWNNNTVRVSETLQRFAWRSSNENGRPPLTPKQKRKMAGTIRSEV

Q: Which results are given for `Cn1nnnc1Sc1ncnc2scc(-c3ccsc3)c12`?
A: AC50 [1]: 7.95 µM (active); AC50 [2]: 6.32 µM (active); AC50 [3]: 9.67 µM (active); AC50 [4]: 8.27 µM (active); AC50 [5]: 9.63 µM (active); AC50 [6]: 10.9 µM (active); AC50 [7]: 2.56 µM (active)

Q: For `CCCCN=C(S)NNC(=O)c1ccc(Br)o1`, which IC50 [8] is on record?
A: > 122 µM (inactive)

Q: For `C[C@@]12C(=O)N(Cc3ccccc3)CC(=O)N1[C@H]1c3ccccc3OC[C@@H]1[C@@H]2c1ccccc1`, which AC50 [9] is on record?
A: 1.68 µM (active)

Q: And the AC50 [10]?
A: 1.65 µM (active)

Q: And the AC50 [11]?
A: 2.27 µM (active)

Q: And the AC50 [12]?
A: 6.27 µM (active)

Q: Which results are given for `CCOC(=O)N1CCN(C(=O)c2ccc3c(c2)N(Cc2ccc(C)cc2)CCS3)CC1`?
A: AC50 [13]: 2.31 µM (active); AC50 [14]: 6 µM (active); AC50 [15]: > 70 µM (inactive)

Q: For `Oc1nc2ccccc2n1C1CCN(C(CCc2ccccc2)c2nnnn2C2CCCC2)CC1` (stereo not drawn), which AC50 [2] is on record?
A: 20.3 µM (active)

Q: And the AC50 [3]?
A: 14.1 µM (active)

Q: What about the AC50 [4] of the same compound?
A: 18.4 µM (active)

Q: And the AC50 [5]?
A: 13.3 µM (active)

Q: What about the AC50 [6] of the same compound?
A: 22.4 µM (active)

Q: For `CN(C1=C(N2CCOCC2)C(=O)c2ccccc2C1=O)c1ccccc1`, which IC50 [16] is on record?
A: 11.9 µM (active)

Q: What about the IC50 [8] of the same compound?
A: > 122 µM (inactive)

Q: And the AC50 [17]?
A: 4.86 µM (active)

Q: What does the source list for `O=C(CN1CCN(Cc2ccc(Cl)cc2)C1=O)NCCCN1CCN(c2ccc(F)cc2)CC1`?
A: AC50 [9]: 36 µM (active); AC50 [12]: 27.3 µM (active)

Q: Which results are given for `O=C(c1ccco1)N1CCN(Cc2ccccc2Br)CC1`?
A: EC50 [18]: 92.5 µM (inactive); EC50 [19]: 5.91 µM (active)

Q: With `Cc1cc2c(cc1C)CSC(c1c(O)ccc3ccccc13)SC2` as the compound, how does the EC50 [20] read?
A: 5.67 µM (active)

Q: And the EC50 [21]?
A: 1.98 µM (active)

Q: What about the EC50 [22] of the same compound?
A: 3.41 µM (active)

Q: And the AC50 [23]?
A: 4.26 µM (active)

Q: And the AC50 [24]?
A: 2.24 µM (active)

Q: And the CC50 [25]?
A: 23 µM (active)
